According to patent US8518903B2, “Use of toll-like receptor-9 agonists” (University of Pittsburgh—of the Commonwealth System of …, priority 2007, dated 2013):

What was measured:
IEC-6 cells [1] = experiment: pERK expression in LPS-treated IEC-6 cells (SDS-PAGE); format: cell-based
Protocol: (§1) FIG. 24A-C. MDP inhibits TLR4 signaling in enterocytes. A. IL-6 release in vitro as determined by ELISA in IEC-6 cells that were either untreated, or treated with LPS in the presence or absence of MDP. B. Serum IL-6 release in vivo in wild-type (open bars) and NOD2-deficient mice (solid bars) that were either pre-treated with saline or MDP then injected with LPS. C. SDS-PAGE showing the expression of phosphorylated ERK and beta-actin in IEC-6 cells that were treated with media (control), LPS, LPS with MDP, LPS with MDP-C which is a non-stimulatory analogue of MDP, and either MDP or MDP-C alone. **p<0.05 vs. control by ANOVA, *p<0.05 vs. LPS by ANOVA.
To further define the effects of MDP on LPS-mediated signaling in enterocytes, IEC-6 cells were treated with LPS in the presence or absence of MDP and the expression of the TLR4 downstream target pERK was assessed by SDS-PAGE. As is shown in FIG. 24C, LPS caused an increase in the expression of pERK compared with untreated cells. […] Taken together, these findings indicate that NOD2 activation with MDP leads to an inhibition of TLR4 signaling in enterocytes in vitro and in vivo.

IEC-6 cells [2] = experiment: IL-6 release from LPS-treated IEC-6 cells (ELISA); format: cell-based; conditions: IEC-6 cells in vitro
Protocol: as §1
(§2) The next series of experiments were designed to further define the physiological significance of the finding that MDP reduces TLR4-mediated NFkB translocation in enterocytes, and to evaluate potential mechanisms involved. Since NFkB activation is known to lead to the release of pro-inflammatory cytokines including IL-6, experiments were performed to evaluate whether MDP would alter the extent of IL-6 release from LPS-treated IEC-6 cells. […] To determine the physiological significance of this work in vivo, wild-type and NOD2-knockout mice were injected with LPS (5 mg/kg) in the presence or absence of MDP (1 mg/kg), and serum IL-6 release—a measure of TLR4 signaling in vivo—was determined by ELISA.

[3] = test system: experimental NEC in newborn mice; experiment: Murine NEC model in NFkB-GFP transgenic mice (histology, mucosal TNF-α RTPCR, NFκB activation); format: in vivo, mouse
Protocol: FIG. 27A-G. CpG-ODN-HS and CpG-DNA reduce the development of experimental NEC in vivo in newborn mice. Newborn NEC and control mice were injected with CpG-ODN-HS or CpG-DNA. A. Histology (H&E) of terminal ileum of breast fed mouse. B. Histology (H&E) of terminal ileum of mouse after induction of NEC. C. Histology (H&E) of terminal ileum of mouse treated with CpG-DNA, after which conditions which induced NEC were applied. D. Histology (H&E) of terminal ileum of mouse treated with CpG-ODN-HS, after which conditions which induced NEC were applied. E. Histology (H&E) of terminal ileum of breast fed mouse treated with CpG-ODN-HS. F. Histology (H&E) of terminal ileum of breast fed mouse treated with CpG-DNA. G. Severity of NEC in newborn mice as scored by a blinded pediatric pathologist. *p<0.05 vs. NEC in saline-injected mice.
FIG. 28. CpG-ODN-HS and CpG-DNA reduce the expression of mucosal TNF-α in NEC newborn mice in vivo.
FIG. 29A-D. Confocal microscopy showing the extent of NFkB activation in mice with NEC in the absence or presence of CpG-ODN-HS. CpG-ODN-HS reduces the level of NFkB activation in NEC newborn mice in vivo. The mice express NFkB-GFP, and sections were stained with anti-GFP antibody (red; arrow).
The effect of the TLR9 agonist CpG-ODN 5′ […] 3′ (SEQ ID NO:10; referred to herein as CpG-ODN-HS) on the mediator of activated TLR4, NFκB, was examined in a murine NEC model (previously described, above). The effect of CpG-ODN-HS on inflammation in the NEC murine model was also examined as a measured by TNF-α expression, which is an index of inflammation.
Materials and methods. Phosphorothioated CpG-ODN-HS and oligodeoxynucleotide (ODN) 1826 ([…]) (SEQ ID NO:6; referred to herein as CpG-DNA) were synthesized by the University of Pittsburgh DNA synthesis facility. ODNs were confirmed to be endotoxin-free by Limulus assay. NFkB-GFP antibody was obtained from Santa Cruz and Abcam. The extent of nuclear translocation was determined in an adaptation of the methodology of Ding and colleagues. In brief, a threshold limit was set based upon the emission signal for the nuclear stain DRAQ5, which therefore defined a nuclear region of interest (ROI). To define a corresponding cytoplasmic region of interest, a circular region 12 pixels beyond the nucleus was stenciled upon each cell. The average integrated pixel intensity pertaining to the corresponding NFkB emission within the cytoplasmic and nuclear regions was then determined for more than 200 cells per treatment group in at least four experiments per group, using MetaMorph software version 6.1 (Molecular Devices Corporation, Downingtown, Pa.).
Mucosal TNF-α expression was measured using quantitative real-time PCR (RTPCR). Quantitative real-time PCR in cultured enterocytes and intestinal tissue using the BioRad iCycler (Biorad, Hercules, CA) was performed as in (Leaphart, C. L., J. Cavallo, S. C. Gribar, S. Cetin, J. Li, M. F. Branca, T. D. Dubowski, C. P. Sodhi, and D. J. Hackam. 2007. A Critical Role for TLR4 in the Pathogenesis of Necrotizing Enterocolitis by Modulating Intestinal Injury and Repair. J Immunology 179:4808-4820). Oligonucleotide primer pairs used for RTPCR were as follows: forward: 5′ […] 3′ (SEQ ID NO:14), reverse: 5′ […] 3′ (SEQ ID NO:15); and forward: 5′ […] 3′ (SEQ ID NO:16), reverse: 5′ […] 3′ (SEQ ID NO:17). Gene expression was normalized to β-actin expression. Where indicated, gene expression was assessed on 2.5% agarose gels using ethidium bromide staining. […]

IEC-6 enterocytes = experiment: TLR4-mediated NFkB (p65) translocation in IEC-6 enterocytes treated with LPS and MDP; format: cell-based; conditions: IEC-6 cells
Text: FIG. 23A-E. MDP prevents TLR4-mediated NFkB translocation in IEC-6 enterocytes. […] Representative of 5 separate experiments. **p<0.05 vs. control by ANOVA, *p<0.05 vs. LPS by ANOVA.
NOD2 activation with MDP inhibits TLR4 signaling in enterocytes. The next experiments were designed to determine whether NOD2 activation with MDP would inhibit TLR4 signaling in enterocytes. To do so, IEC-6 enterocytes—a cell line that represents a model system to study enterocyte biology and which expresses TLR4 (Neal et al., 2006, J Immunol 176:3070-3079)—were treated with LPS in the presence or absence of MDP. Since TLR4 signaling leads to the translocation of NFkB from the cytoplasm into the nucleus, the extent of TLR4 activation was evaluated using an immunofluorescence-based detection assay of the p65 subunit of NFkB. As is shown in FIG. 23A and quantified in FIG. 23E, in control cells, NFkB is localized in the cytoplasm. Upon treatment with LPS ([…], 1 h), NFkB was detected in the nucleus, indicative of NFkB activation (FIG. 23B).

[4] = test system: wild-type and NOD2-knockout mice; experiment: Serum IL-6 release in LPS-injected wild-type and NOD2-knockout mice (ELISA); format: in vivo, mouse; conditions: LPS 5 mg/kg, MDP 1 mg/kg
Protocol: as §1, §2

[5] = test system: experimental NEC in newborn mice; experiment: Experimental necrotizing enterocolitis in newborn mice, MDP treatment; format: in vivo, mouse
Protocol: FIG. 26A-E. MDP prevents against the development of experimental NEC in vivo in newborn mice. Newborn mice were injected with saline or MDP daily for four days, and then were induced to develop NEC. A. Histology (H&E) of terminal ileum of breast fed mouse treated with saline control. B. Histology (H&E) of terminal ileum of breast fed mouse treated with MDP. C. Histology (H&E) of terminal ileum of mouse pre-treated with saline, after which NEC was induced. D. Histology (H&E) of terminal ileum of mouse pre-treated with MDP, after which conditions which induced NEC in saline-treated mice were applied. E: Severity of NEC in newborn mice as scored by a blinded pediatric pathologist. *p<0.05 vs. NEC in saline-injected mice. Representative of three separate experiments with over 5 animals per group.
NOD2 expression in the intestine is reduced in human and experimental necrotizing enterocolitis. […]
MDP prevents against the development of experimental necrotizing enterocolitis. […] It was also determined that mucosal NOD2 expression is decreased in experimental NEC (FIG. 22I). […]

TLR4 = TLR4 distribution and expression in enterocytes after MDP (immunohistochemistry, RT-PCR); format: in vivo, mouse
Protocol: FIG. 25. MDP treatment decreases TLR4 expression in enterocytes. Newborn mice were treated with LPS after pre-treatment with either saline or MDP. Three hours later mucosal scrapings were harvested from the terminal ileum, and subjected to RT-PCR for expression of TLR4. Representative of 4 separate experiments. Duplicate samples are shown for each group.
MDP treatment of enterocytes reduces the expression of TLR4. The next series of studies investigated the potential mechanisms by which MDP activation of NOD2 could lead to a reduction in the extent of TLR4 signaling.

[6] = test system: models of ulcerative colitis; conditions: previous reports; cited from earlier work

Row | Compound | LPS-induced pERK expression (IEC-6 cells [1]) | LPS-induced IL-6 release (IEC-6 cells [2]) | activation of NFκB ([3]; NEC mice expressing NFkB-GFP, confocal microscopy) | level of expression of mucosal TNF-α in terminal ileum ([3]; NEC mice, RTPCR) | NEC pathology (histology of terminal ileum) ([3]; NEC mice, treated vs untreated) | LPS-induced nuclear translocation of NFkB (IEC-6 enterocytes; LPS in the presence of MDP) | extent of NFkB translocation (IEC-6 enterocytes; MDP alone) | effect in reducing TLR4 signaling (serum IL-6 release) ([4]; NOD2-knockout mice) | LPS-mediated serum IL-6 release ([4]; wild-type mice) | extent of NEC that developed (histology of terminal ileum) ([5]; NOD2-wild-type mice, MDP 1 mg/ml daily for four days, vs saline) | intestinal histology ([5]; breast fed mice, MDP alone) | relative distribution of TLR4 in enterocytes (TLR4; immunohistochemistry) | expression of TLR4 in enterocytes (TLR4; newborn mice, LPS after MDP pre-treatment, terminal ileum mucosal scrapings, RT-PCR) | degree of intestinal inflammation [6]
1 | CC(=O)NC1C(O)OC(CO)C(O)C1OC(C)C(=O)NC(C)C(=O)NC(CCC(=O)O)C(N)=O (stereo not shown) [MDPC] | did not reduce | did not reduce | – | – | – | – | – | – | – | – | – | – | – | –
2 | 5′ TCGTCGTTTTGTCGTTCCTGACGTT 3′ (listed as DNA, chemistry not fully specified) [CpG-ODN-HS, TLR9 agonist CpG-ODN] | – | – | reduced | reduced | inhibition of the NEC pathology | – | – | – | – | – | – | – | – | –
3 | CC(=O)N[C@@H]1[C@@H](O[C@H](C)C(=O)N[C@@H](C)C(=O)N[C@H](CCC(=O)O)C(N)=O)[C@H](O)[C@@H](CO)O[C@H]1O [MDP, muramyl-di-peptide] | significantly reduced | significantly reduced | – | – | – | reduction in nuclear translocation | did not significantly alter | less pronounced | significantly reduced | striking reduction in the extent of NEC | did not alter intestinal histology | does not alter | significant reduction | can limit the degree of intestinal inflammation
